Data from patent US7517870B2, “Use of compounds that interfere with the hedgehog signaling pathway for the manufacture of a medicament for preventing, inhibiting, and/or reversing ocular diseases related with ocular neovascularization” (Fondazione Telethon, priority 2004, dated 2009).

Legend:
[1] = tested on: retinal (ocular) neovascularization; assay: Angiography after fluorescein-dextran perfusion in mouse model of Retinopathy of Prematurity (ROP); type: in vivo, C57/BL6 mice; settings: ROP mice
Text: To determine whether inhibition of the Shh signaling pathway by administration of an siRNA targeting Shh is able to reduce retinal (ocular) neovascularization, siRNA targeting Shh is administrated to a mouse model of Retinopathy of Prematurity (ROP).
C57/BL6 mice are used in this study. Mice from postnatal day 7 (P7) to P12 are exposed to hyperoxia (25% nitrogen, 75% oxygen). At P12 mice return to room air until P17. The group of five mice treated with siRNA targeting Shh receive a daily subretinal injection (1 μl) of 100 mg/ml siRNA targeting Shh dissolved in Phosphate-Buffered Saline (PBS) from P12 to P17, controls receive the vehicle alone.

[2] = tested on: VEGF protein expression in 293 cells; settings: HEK-293 cells, desferroxamine 100 μM, Cyclopamine 10 μM, 24 hours
Method: Five μl of 95% ethanol was added to untreated control.
Twenty-four hours after induction of hypoxia the supernatant of the 293 cells was removed from wells and a human VEGF ELISA (R & D Systems, Minneapolis, Minn.) was performed on the cell supernatants (FIG. 4) as described in the Quantikine human VEGF ELISA protocol using a dilution of
the medium of 1:10. ELISA results were read on a Bio-Rad Reader 550 ELISA plate reader (Bio-Rad Laboratories, Inc, CA).

Hh-dependent tumors = settings: mice that carry Hh-dependent tumors; cited from earlier work
[3] = daily subretinal injection (1 μl) of 100 mg/ml siRNA in PBS from P12 to P17, angiography on P17, vs vehicle control eyes

Molecule: siRNA targeting Shh: siRNA duplex, SEQ ID NO:16 (sense strand) and SEQ ID NO:15 (antisense strand) (sense AAUUACAACCCCGACAUCAUAUU; antisense UAUGAUGUCGGGGUUGUAAUUUU; listed as RNA, chemistry not given here)
- inhibition of ocular neovascularization (neovascular tufts and vessel leakage) [1, 3]: Robust inhibition of ocular neovascularization

Molecule: CC1=C2C[C@H]3[C@@H](CC=C4C[C@@H](O)CC[C@@]43C)[C@@H]2CC[C@]12O[C@@H]1C[C@H](C)CN[C@H]1[C@H]2C [cyclopamine]
- inhibition of hypoxia-induced VEGF expression [2]: Able to Inhibit Hypoxia-Induced VEGF Expression
- effect on Hh-dependent tumors (Hh-dependent tumors): growth inhibition and regression of cancerous tissue
- health of treated animals (Hh-dependent tumors): does not affect the health of treated animals
- inhibition of ocular neovascularization (neovascular tufts and vessel leakage) ([1]; daily subcutaneous injection of 50 mg/kg from P12 to P17, angiography on P17, vs vehicle control eyes): Robust inhibition of ocular neovascularization

Molecule: siRNA targeting Smoothened: siRNA duplex, SEQ ID NO:17 (sense strand) and SEQ ID NO:18 (antisense strand) (sense AAGGCCUUCUCUAAGCGGCAUU; antisense UGCCGCUUAGAGAAGGCCUUUU; listed as RNA, chemistry not given here)
- inhibition of ocular neovascularization (neovascular tufts and vessel leakage) [1, 3]: Robust inhibition of ocular neovascularization

Molecule: siRNA targeting Gli1: siRNA duplex, SEQ ID NO:19 (sense strand) and SEQ ID NO:20 (antisense strand) (sense ACGCCGCAGCAGCAGCUCCUU; antisense GGAGCUGCUGCUGCGGCGUUU; listed as RNA, chemistry not given here)
- inhibition of ocular neovascularization (neovascular tufts and vessel leakage) [1, 3]: Robust inhibition of ocular neovascularization

B1: soluble Hip1: secreted form of Hedgehog interacting protein 1 lacking the transmembrane domain (SEQ ID NO:6), produced in 293 cells (protein, listed as Mus musculus)
chain: MLKMLSFKLLLLAVALGFFEGDAKFGERNEGSGARRRRCLNGNPPKRLKRRDRRVMSQLELLSGGEILCGGFYPRVSCCLQSDSPGLGRLENKIFSATNNSECSRLLEEIQCAPCSPHSQSLFYTPERDVLDGDLALPLLCKDYCKEFFYTCRGHIPGLLQTTADEFCFYYARKDAGLCFPDFPRKQVRGPASNYLGQMEDYEKVGGISRKHKHNCLCVQEVMSGLRQPVSAVHSGDGSHRLFILEKEGYVKILTPEGELFKEPYLDIHKLVQSGIKGGDERGLLSLAFHPNYKKNGKLYVSYTTNQERWAIGPHDHILRVVEYTVSRKNPHQVDVRTARVFLEVAELHRKHLGGQLLFGPDGFLYIILGDGMITLDDMEEMDGLSDFTGSVLRLDVDTDMCNVPYSIPRSNPHFNSTNQPPEVFAHGLHDPGRCAVDRHPTDININLTILCSDSNGKNRSSARILQIIKGRGYESEPSLLEFKPFSNGPLVGGFVYRGCQSERLYGSYVFGDRNGNFLTLQQSPVTKQWQEKPLCLGASSSCRGYFSGHILGFGEDELGEVYILSSSKSMTQTHNGKLYKIVDPKRPLMPEECRVTVQPAQPLTSDCSRLCRNGYYTPTGKCCCSPGWEGDFCRIAKCEPACRHGGVCVRPNKCLCKKGYLGPQCEQVDRNVRRVTR
- inhibition of ocular neovascularization (neovascular tufts and vessel leakage) ([1]; daily subretinal injection of 50 mg/kg in PBS from P12 to P17, angiography on P17, vs vehicle control eyes): Robust inhibition of ocular neovascularization
